Laboratory results as given in ChEMBL document CHEMBL1133958, “Derivatives of (2R,3R,4S)-2-aminomethylpyrrolidine-3,4-diol are selective alpha-mannosidase inhibitors” (Bioorg Med Chem Lett, 2001).
The source made the active and inactive calls. The calls are words filed in the database; no cut-off is given here.

Tests used:
[1] = target: T1, Alpha-glucosidase (Oryza sativa Japonica Group) (UniProt Q9LGC6); experiment: Percentage inhibition of Alpha-glucosidase from Rice (maltase) at 1 mM; […]
T1 sequence (whole entry): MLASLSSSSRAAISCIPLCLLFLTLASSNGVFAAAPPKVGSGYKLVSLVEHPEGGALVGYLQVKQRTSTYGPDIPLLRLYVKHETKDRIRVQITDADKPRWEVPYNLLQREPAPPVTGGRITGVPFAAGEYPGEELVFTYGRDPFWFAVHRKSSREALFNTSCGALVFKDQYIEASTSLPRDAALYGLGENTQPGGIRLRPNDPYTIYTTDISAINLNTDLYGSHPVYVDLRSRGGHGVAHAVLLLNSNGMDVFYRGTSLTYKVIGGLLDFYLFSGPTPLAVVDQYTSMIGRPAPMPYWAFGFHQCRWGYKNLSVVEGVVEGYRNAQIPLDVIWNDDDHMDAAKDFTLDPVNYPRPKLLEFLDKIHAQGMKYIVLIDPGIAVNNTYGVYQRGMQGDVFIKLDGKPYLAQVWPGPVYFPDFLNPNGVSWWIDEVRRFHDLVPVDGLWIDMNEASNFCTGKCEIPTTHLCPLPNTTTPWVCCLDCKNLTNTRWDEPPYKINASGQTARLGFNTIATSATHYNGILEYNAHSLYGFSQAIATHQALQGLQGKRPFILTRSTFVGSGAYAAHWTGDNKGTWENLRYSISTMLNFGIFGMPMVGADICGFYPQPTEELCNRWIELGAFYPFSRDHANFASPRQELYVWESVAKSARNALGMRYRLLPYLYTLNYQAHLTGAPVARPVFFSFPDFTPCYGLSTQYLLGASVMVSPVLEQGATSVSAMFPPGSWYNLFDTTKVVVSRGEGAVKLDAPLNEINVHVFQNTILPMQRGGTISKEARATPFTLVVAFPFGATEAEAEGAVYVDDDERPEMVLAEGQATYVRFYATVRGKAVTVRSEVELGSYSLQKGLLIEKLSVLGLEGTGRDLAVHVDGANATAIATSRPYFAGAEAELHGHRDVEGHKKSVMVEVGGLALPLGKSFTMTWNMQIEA

[2] = Inhibitory activity towards Alpha-glucosidase from Yeast (maltase); design: species or system Saccharomyces cerevisiae
[3] = system: Saccharomyces cerevisiae; experiment: Percentage inhibition of Alpha-glucosidase from Yeast (maltase) at 1 mM
[4] = target: Glucoamylase (Aspergillus niger) (UniProt P69328); experiment: Percentage inhibition of Alpha-glucosidase from Aspergillus niger (amyloglucosidase) at 1 mM; No inhibition
Sequence of Glucoamylase (Aspergillus niger) (P69328 whole entry): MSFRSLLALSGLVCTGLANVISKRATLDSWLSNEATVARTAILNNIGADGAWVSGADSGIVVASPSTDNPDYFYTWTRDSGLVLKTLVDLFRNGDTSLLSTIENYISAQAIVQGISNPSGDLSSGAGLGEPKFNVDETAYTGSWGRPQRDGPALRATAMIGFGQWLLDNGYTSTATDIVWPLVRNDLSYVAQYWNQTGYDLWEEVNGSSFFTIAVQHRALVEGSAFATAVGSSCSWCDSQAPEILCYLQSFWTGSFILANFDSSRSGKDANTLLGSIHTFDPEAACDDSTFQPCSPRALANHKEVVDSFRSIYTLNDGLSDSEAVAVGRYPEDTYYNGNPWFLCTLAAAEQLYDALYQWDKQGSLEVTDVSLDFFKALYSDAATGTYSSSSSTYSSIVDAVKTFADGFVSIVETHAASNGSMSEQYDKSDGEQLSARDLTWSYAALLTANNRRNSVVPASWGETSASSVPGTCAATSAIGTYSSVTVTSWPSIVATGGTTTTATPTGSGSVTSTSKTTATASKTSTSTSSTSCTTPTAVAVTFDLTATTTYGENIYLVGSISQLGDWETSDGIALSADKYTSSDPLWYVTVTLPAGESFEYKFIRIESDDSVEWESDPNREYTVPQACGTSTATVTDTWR

[5] = target: Beta-glucosidase A (Caldicellulosiruptor saccharolyticus, UniProt P10482); experiment: Inhibitory activity towards Beta-Glucosidase from Caldocellum saccharol.
Sequence of Beta-glucosidase A (P10482 whole entry): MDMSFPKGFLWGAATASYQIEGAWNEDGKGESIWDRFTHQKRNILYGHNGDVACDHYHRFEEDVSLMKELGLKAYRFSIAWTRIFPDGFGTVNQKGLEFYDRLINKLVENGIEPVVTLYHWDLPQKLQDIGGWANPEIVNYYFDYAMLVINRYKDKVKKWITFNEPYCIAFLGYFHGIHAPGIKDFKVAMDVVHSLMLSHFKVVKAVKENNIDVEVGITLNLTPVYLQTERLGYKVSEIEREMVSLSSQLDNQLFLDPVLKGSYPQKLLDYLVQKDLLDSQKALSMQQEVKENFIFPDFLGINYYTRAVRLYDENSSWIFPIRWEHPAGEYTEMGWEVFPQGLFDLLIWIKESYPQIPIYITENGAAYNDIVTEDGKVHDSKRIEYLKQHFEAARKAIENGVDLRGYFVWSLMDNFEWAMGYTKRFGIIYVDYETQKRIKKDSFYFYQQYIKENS

[6] = target: Beta-galactosidase (Escherichia coli K-12) (UniProt P00722); experiment: Percentage inhibition of Beta-galactosidase from Escherichia coli at 1 mM concentration
Sequence of Beta-galactosidase (Escherichia coli K-12) (P00722 whole entry): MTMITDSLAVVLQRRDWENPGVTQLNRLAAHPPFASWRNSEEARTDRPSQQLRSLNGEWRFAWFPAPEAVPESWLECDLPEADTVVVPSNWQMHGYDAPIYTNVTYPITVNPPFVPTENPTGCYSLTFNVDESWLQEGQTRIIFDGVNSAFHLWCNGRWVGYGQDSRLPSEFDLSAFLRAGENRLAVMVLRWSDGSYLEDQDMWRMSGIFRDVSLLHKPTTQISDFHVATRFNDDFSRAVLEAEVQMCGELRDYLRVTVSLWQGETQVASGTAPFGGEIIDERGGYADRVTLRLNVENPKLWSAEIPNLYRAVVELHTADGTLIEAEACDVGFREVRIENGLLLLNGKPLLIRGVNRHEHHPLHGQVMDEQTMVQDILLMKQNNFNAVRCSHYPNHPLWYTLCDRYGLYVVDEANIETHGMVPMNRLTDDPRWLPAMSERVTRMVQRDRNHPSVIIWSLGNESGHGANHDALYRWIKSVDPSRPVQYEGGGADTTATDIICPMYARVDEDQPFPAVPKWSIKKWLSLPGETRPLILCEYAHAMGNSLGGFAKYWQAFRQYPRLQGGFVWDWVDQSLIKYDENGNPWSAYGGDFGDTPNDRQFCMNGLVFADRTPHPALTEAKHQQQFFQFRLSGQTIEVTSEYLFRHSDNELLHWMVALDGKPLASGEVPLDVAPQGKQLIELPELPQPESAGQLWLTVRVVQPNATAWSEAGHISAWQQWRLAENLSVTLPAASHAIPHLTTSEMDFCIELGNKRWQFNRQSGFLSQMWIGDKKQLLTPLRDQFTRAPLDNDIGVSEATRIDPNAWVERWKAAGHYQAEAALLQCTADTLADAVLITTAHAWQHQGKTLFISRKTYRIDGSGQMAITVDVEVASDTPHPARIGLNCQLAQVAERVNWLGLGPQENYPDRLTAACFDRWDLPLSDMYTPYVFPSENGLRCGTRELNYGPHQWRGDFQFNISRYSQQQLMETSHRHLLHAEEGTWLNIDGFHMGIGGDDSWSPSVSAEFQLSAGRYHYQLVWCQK

[7] = target: T2, Beta-galactosidase (Bos taurus, UniProt Q58D55); experiment: Inhibitory activity towards Beta-galactosidase from Bovine liver
T2 sequence (Q58D55 whole entry): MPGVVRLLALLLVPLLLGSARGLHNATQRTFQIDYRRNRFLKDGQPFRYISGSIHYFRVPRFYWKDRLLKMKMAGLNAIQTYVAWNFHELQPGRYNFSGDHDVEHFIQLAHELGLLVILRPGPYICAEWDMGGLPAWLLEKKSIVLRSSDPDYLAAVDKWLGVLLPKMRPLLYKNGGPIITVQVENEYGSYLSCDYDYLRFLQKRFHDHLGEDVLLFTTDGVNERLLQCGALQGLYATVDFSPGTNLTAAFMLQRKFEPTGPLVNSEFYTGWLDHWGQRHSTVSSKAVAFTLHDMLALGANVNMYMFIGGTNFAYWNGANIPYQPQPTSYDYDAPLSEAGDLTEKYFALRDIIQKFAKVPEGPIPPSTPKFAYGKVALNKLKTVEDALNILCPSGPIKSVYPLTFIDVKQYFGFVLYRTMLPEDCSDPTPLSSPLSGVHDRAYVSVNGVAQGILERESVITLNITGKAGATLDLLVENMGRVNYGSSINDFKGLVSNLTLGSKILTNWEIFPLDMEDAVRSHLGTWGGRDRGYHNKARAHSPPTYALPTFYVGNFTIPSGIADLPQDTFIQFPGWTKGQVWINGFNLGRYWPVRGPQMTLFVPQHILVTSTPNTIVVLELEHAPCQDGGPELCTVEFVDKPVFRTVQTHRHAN

[8] = target: T3, Beta-galactosidase (Bos taurus) (UniProt Q58D55); experiment: Percentage inhibition of Beta-galactosidase from Bovine liver at 1 mM concentration
T3 sequence (whole entry): T2 sequence (Q58D55 whole entry)

[9] = target: T4, Beta-galactosidase (Aspergillus niger) (UniProt P29853); experiment: Percentage inhibition of Beta-galactosidase from Aspergillus niger at 1 mM concentration; […]
T4 sequence (whole entry): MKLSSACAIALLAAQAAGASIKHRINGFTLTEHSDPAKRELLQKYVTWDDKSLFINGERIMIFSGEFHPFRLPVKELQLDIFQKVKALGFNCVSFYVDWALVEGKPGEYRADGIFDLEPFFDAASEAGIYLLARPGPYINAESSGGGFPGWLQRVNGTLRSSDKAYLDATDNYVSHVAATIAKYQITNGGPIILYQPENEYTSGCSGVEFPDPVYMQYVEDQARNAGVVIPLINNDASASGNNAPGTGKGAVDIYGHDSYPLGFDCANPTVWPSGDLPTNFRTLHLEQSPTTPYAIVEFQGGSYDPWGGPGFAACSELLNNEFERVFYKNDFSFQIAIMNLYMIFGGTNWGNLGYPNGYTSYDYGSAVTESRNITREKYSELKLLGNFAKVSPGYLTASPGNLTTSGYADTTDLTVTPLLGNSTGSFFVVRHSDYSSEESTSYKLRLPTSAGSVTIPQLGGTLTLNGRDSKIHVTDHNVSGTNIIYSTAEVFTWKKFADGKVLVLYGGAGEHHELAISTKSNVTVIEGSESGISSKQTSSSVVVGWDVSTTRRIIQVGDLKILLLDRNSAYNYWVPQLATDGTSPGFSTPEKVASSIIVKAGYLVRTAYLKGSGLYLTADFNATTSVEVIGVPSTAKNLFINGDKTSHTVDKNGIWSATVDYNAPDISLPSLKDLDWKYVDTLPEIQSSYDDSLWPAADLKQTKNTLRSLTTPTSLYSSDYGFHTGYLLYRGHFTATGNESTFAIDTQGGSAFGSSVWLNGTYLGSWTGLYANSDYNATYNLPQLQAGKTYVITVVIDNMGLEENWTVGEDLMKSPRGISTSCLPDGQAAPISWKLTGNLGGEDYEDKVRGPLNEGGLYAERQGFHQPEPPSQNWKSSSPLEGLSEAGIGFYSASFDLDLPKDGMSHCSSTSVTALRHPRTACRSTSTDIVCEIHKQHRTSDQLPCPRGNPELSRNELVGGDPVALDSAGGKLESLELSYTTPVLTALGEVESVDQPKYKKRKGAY

[10] = Inhibitory activity towards Alpha-glucosidase from Baker yeast (isomaltase); design: species or system Saccharomyces cerevisiae
[11] = Percentage inhibition of Beta-galactosidase from Jack bean at 1 mM concentration; details: Canavalia ensiformis

OC1CNC(CNCC2CCN(Cc3ccccc3)CC2)C1O (configuration not stated)
inhibition [1]: inactive | IC50 [2]: 610 µM | inhibition [3]: 55% | inhibition [4]: inactive | IC50 [5]: 290 µM | inhibition [6]: 39% | IC50 [7]: 770 µM | inhibition [8]: 53% | inhibition [9]: inactive | IC50 [10]: 120 µM | Ki [10]: 40 µM | inhibition [11]: 26%
